From patent US9340577B2, “HLA binding motifs and peptides and their uses” (priority 1992, dated 2016) come the findings set out here.

Among the targets are HLA-A3.2 (A*0301) (Homo sapiens, UniProt P04439); HLA-A11 (A*1101) (Homo sapiens, UniProt P04439, A114D/D185E/E176A/F33Y/L180Q/S129P/T187R); A*3301 (Homo sapiens, UniProt P04439, A270S/D185E/E176V/E277Q/E87N/F33T/G231S/H175R/I121M/I218V/I322F/K168Q/K210R/L300P/L318F/M331R/P217A/Q86R/Q94H/R138Q/T323A/T345S/T97I/V358M/Y195H); A*6801 (Homo sapiens, UniProt P04439, A269V/D185E/E176V/E277Q/E87N/F33Y/G231S/I121M/I166T/I218V/L180W/L300P/L318F/N151K/P208A/P217A/Q86R/R169H/T345S); A31 (A*3101) (Homo sapiens, UniProt P04439, A270S/D185E/E176V/E277Q/F33T/G231S/G80R/H175R/I121M/I218V/I322F/K168Q/L300P/L318F/M331R/P217A/Q94H/R138Q/T323A/T345S/T97I/V358M).

Common to all, as to experiment: biochemical
What all share (type): binding

No end group written: not given here. A value given as a limit tells only on which side of the number the result lay.

With VSYWGVYYIK [Peptide 1589.25], the IC50 was 0.109 µM against HLA-A3.2 (A*0301), 0.003 µM on HLA-A11 (A*1101), 11.5 µM on A*3301 and 0.024 µM against A*6801.
LTALITPKK [Peptide 9017.0101]: the IC50 at HLA-A3.2 (A*0301) amounted to 0.041 µM; against HLA-A11 (A*1101), 0.0042 µM; on A31 (A*3101), 4.5 µM; against A*6801, 0.0065 µM.
In the case of AAFDLSFFLK [Peptide 9017.0189], the IC50 on HLA-A3.2 (A*0301) was 0.009 µM; against HLA-A11 (A*1101) it was 0.0023 µM; at A31 (A*3101), 0.13 µM; against A*6801, 0.0019 µM.
With KIDRLIDRIR [Peptide 9017.0249], the IC50 at HLA-A3.2 (A*0301), on HLA-A11 (A*1101), at A*3301 and against A*6801 was > 20 µM each time.
Consider AFNSSHKGR [Peptide 88.0394], for which the IC50 is > 20 µM at HLA-A3.2 (A*0301), > 20 µM against HLA-A11 (A*1101), 0.055 µM against A31 (A*3101) and > 20 µM against A*6801.
On to VTYHSETQR [Peptide 1589.10], for which the IC50 is 0.029 µM at HLA-A3.2 (A*0301), 0.022 µM on HLA-A11 (A*1101), 0.066 µM at A31 (A*3101) and 0.032 µM on A*6801.
Turning to CTELKLVYR [Peptide 78.0334], the IC50 is > 20 µM on HLA-A3.2 (A*0301), > 20 µM against HLA-A11 (A*1101), 0.064 µM against A31 (A*3101) and 1.33 µM on A*6801.
For FTAFLGAFKK [Peptide 88.0168], the IC50 is 1.9 µM at HLA-A3.2 (A*0301), 0.025 µM at HLA-A11 (A*1101), > 20 µM at A31 (A*3101) and 0.02 µM on A*6801.
In the case of NTMDYTNWK [Peptide 88.0425], the IC50 against HLA-A3.2 (A*0301) is 1.6 µM; against HLA-A11 (A*1101), 0.019 µM; against A31 (A*3101), > 20 µM; at A*6801 it was 0.013 µM.
For the compound CFYSPALNK [Peptide 1556.43], the IC50 against HLA-A3.2 (A*0301) was 0.127 µM; against HLA-A11 (A*1101), 0.074 µM; on A*3301, 0.122 µM; against A*6801, 1.45 µM.
For LNKMFCQLAR [Peptide 1556.49], the figures for the IC50 against HLA-A3.2 (A*0301), on HLA-A11 (A*1101) and against A*6801 were 11.1 µM, 8.88 µM and 1.8 µM, respectively.
In the case of ATLQDIVLH [Peptide 78.0278], the IC50 at HLA-A3.2 (A*0301) was 4.51 µM; at HLA-A11 (A*1101) it was 0.152 µM; at A*3301 it was > 20 µM; against A*6801, > 20 µM.
For the compound RTHSSHLKSKK [Peptide 1556.76], the IC50 against HLA-A3.2 (A*0301) was found to be 0.059 µM; against HLA-A11 (A*1101) it was 0.0098 µM; at A*3301 it was 10.7 µM; at A*6801, 1.36 µM.
As for GVSIEWRLRR [Peptide 9017.0220], the IC50 was 7.78 µM against HLA-A3.2 (A*0301), 0.468 µM against HLA-A11 (A*1101), 0.189 µM against A31 (A*3101) and 4.42 µM against A*6801.
With LLLIRFRCSK [Peptide 88.0164], the IC50 at HLA-A3.2 (A*0301) was 0.205 µM; on HLA-A11 (A*1101), 6.98 µM; against A*3301, > 20 µM; against A*6801 it was 0.732 µM.
Take MVIEPPKLR [Peptide 88.0360]: the IC50 is > 20 µM at HLA-A3.2 (A*0301), 0.271 µM on HLA-A11 (A*1101), 0.729 µM at A31 (A*3101) and 0.013 µM on A*6801.
Taken in the same sequence, the figures for IVGWPAVRER [Peptide 9017.0186] were 0.63 µM, 1.17 µM, 0.11 µM and 0.081 µM.
With MLIRYTCGK [Peptide 88.0377], the 50% inhibitory concentration (IC50) at HLA-A3.2 (A*0301) stood at 0.034 µM; at HLA-A11 (A*1101) it was 0.014 µM; against A31 (A*3101), 1.22 µM; at A*6801 it was 0.015 µM.
On to QQMNMCQWIK [Peptide 88.0186], for which the IC50 is 0.346 µM against HLA-A3.2 (A*0301), 0.02 µM at HLA-A11 (A*1101), 13.1 µM against A*3301 and 0.197 µM at A*6801.
RILSTYLGR [Peptide 9017.0072]: the IC50 was found to be 0.0075 µM at HLA-A3.2 (A*0301), 0.0072 µM on HLA-A11 (A*1101), 0.0016 µM against A31 (A*3101) and 0.457 µM at A*6801.
AQVLHVLKRK [Peptide 88.0141]: the IC50 was 0.161 µM against HLA-A3.2 (A*0301), 0.104 µM against HLA-A11 (A*1101), > 20 µM against A*3301 and 15.8 µM on A*6801.
On to GVEFISFLR [Peptide 1587.55], for which the IC50 was > 20 µM against HLA-A3.2 (A*0301), 0.44 µM against HLA-A11 (A*1101), 0.124 µM against A31 (A*3101) and 0.048 µM at A*6801.
For the compound SLYGKTLEER [Peptide 78.0142], the IC50 at HLA-A3.2 (A*0301) was 0.056 µM; on HLA-A11 (A*1101), 1.73 µM; against A*3301 it was 5.5 µM; at A*6801 it was 0.178 µM.
FTAFLGAFK [Peptide 88.0362]: the IC50 against HLA-A3.2 (A*0301) amounted to 0.031 µM; against HLA-A11 (A*1101) it was 0.0038 µM; on A*3301, 0.071 µM; at A*6801, 0.0054 µM.
The matching figures for KAILGQVVR [Peptide 9017.0092]: 15.5 µM, 5.34 µM, > 20 µM and 0.159 µM.
In the case of ITVYYGVPVWR [Peptide 1525.06], the IC50 came to 0.831 µM on HLA-A3.2 (A*0301), 0.076 µM on HLA-A11 (A*1101), 0.013 µM against A31 (A*3101) and 0.0054 µM against A*6801.
Consider DSNACAFLK [Peptide 1587.33], for which the IC50 was found to be 1.42 µM on HLA-A3.2 (A*0301), 0.303 µM on HLA-A11 (A*1101), 0.039 µM at A*3301 and 0.068 µM against A*6801.
IQIKRRQQK [Peptide 9012.0207]: the IC50 against HLA-A3.2 (A*0301) was 0.029 µM; at HLA-A11 (A*1101), 0.02 µM; against A*3301, > 20 µM; against A*6801 it was > 20 µM.
For the compound ALTALIKPK [Peptide 9017.0098], the IC50 on HLA-A3.2 (A*0301) was 0.024 µM; on HLA-A11 (A*1101), 0.019 µM; at A*3301, > 20 µM; against A*6801, 6.02 µM.
Taken in the same sequence, the figures for KTLEERVKK [Peptide 78.0294] were 0.302 µM, 0.16 µM, > 20 µM and > 20 µM.
With TLDVYMIMVK [Peptide 9012.0258], the IC50 was 1.56 µM against HLA-A3.2 (A*0301), 0.017 µM on HLA-A11 (A*1101), > 20 µM against A*3301 and 2.03 µM on A*6801.
Taken in the same sequence, the figures for VTVYDGVPVWR [Peptide 1525.08] were 7.84 µM, 0.246 µM, 5.72 µM and 0.059 µM.
The matching figures for RTLTLLSVTK [Peptide 1556.13]: 0.023 µM, 0.015 µM, 6.76 µM and 0.219 µM.
For ALKGLAQSK [Peptide 88.0416], the IC50 at HLA-A3.2 (A*0301) was 0.065 µM; on HLA-A11 (A*1101) it was 1.66 µM; against A*3301, > 20 µM; on A*6801, > 20 µM.
`CC[C@H](C)[C@H](N)C(=O)N[C@@H](CO)C(=O)N[C@@H](Cc1ccccc1)C(=O)N[C@@H](C)C(=O)NCC(=O)N[C@H](C(=O)N[C@H](C(=O)N[C@H](C(=O)N[C@@H](CCCCN)C(=O)O)[C@@H](C)O)C(C)C)[C@@H](C)CC` [Peptide 1589.17]: the IC50 worked out at 0.033 µM against HLA-A3.2 (A*0301), 0.0095 µM at HLA-A11 (A*1101), 4.37 µM on A*3301 and 0.031 µM against A*6801.
With QVLHLLKRK [Peptide 88.0365], the IC50 at HLA-A3.2 (A*0301) was 1.55 µM; on HLA-A11 (A*1101), 0.32 µM; against A*3301 it was 1.85 µM; against A*6801, 0.801 µM.
STWHWTSDNK [Peptide 1589.22]: the half-maximal inhibitory concentration (IC50) on HLA-A3.2 (A*0301) is 0.161 µM; against HLA-A11 (A*1101) it was 0.017 µM; against A*3301 it was > 20 µM; against A*6801, 0.018 µM.
With SQWIRFRCSK [Peptide 88.0147], the IC50 against HLA-A3.2 (A*0301) was found to be 0.415 µM; at HLA-A11 (A*1101), 0.13 µM; at A31 (A*3101) it was 0.373 µM; on A*6801 it was 11.8 µM.
Taken in the same sequence, the figures for GVMCRHYKR [Peptide 88.0388] were 2.89 µM, 0.08 µM, 0.037 µM and 0.093 µM.
With GVIVMMLIR [Peptide 88.0376], the IC50 against HLA-A3.2 (A*0301) was determined as 2.38 µM; at HLA-A11 (A*1101) it was 0.434 µM; against A*3301 it was 0.214 µM; on A*6801 it was 2.77 µM.
In the case of STAAALYWYK [Peptide 1587.06], the values for the IC50 against HLA-A3.2 (A*0301), at HLA-A11 (A*1101) and against A*6801 were 0.0045 µM, 0.0016 µM and 0.0059 µM, respectively.
As for LALTALITPK [Peptide 9017.0228], the IC50 on HLA-A3.2 (A*0301) is 0.088 µM; at HLA-A11 (A*1101) it was 0.0066 µM; against A31 (A*3101), 1.73 µM; on A*3301, > 20 µM.
Taken in the same sequence, the figures for KQFLQGVPK [Peptide 88.0390] were 0.032 µM, 0.017 µM, 0.044 µM and 5.18 µM.
Regarding NTKATLLYK [Peptide 88.0385], the IC50 was determined as 0.396 µM at HLA-A3.2 (A*0301), 0.109 µM at HLA-A11 (A*1101), 3.82 µM against A31 (A*3101) and 0.168 µM against A*3301.
The matching figures for IVFIEYRKIR [Peptide 9017.0245]: 4.37 µM, 1.47 µM, 0.012 µM and 0.312 µM.
The matching figures for LQMALETLSK [Peptide 88.0214]: 0.559 µM, 0.022 µM, 10.6 µM and > 20 µM.

By IC50 is commonly meant the point on the concentration scale where inhibition reaches its midpoint. Low readings indicate higher potency, high ones lower potency.
